Assay results as given in paper PMC10108345, “Differentiating Inhibition Selectivity and Binding Affinity of Isocitrate Dehydrogenase 1 Variant Inhibitors” (Journal of Medicinal Chemistry, 2023).

Experiments:
[1] = target: T1, IDH1 R132H (Homo sapiens, UniProt O75874, R132H); experiment: Absorbance turnover assay (NADPH, 340 nm), IDH1 R132H-catalyzed conversion of 2OG to 2HG; assay type: biochemical
T1 construct: made in house; host or cells: Escherichia coli BL21(DE3) pLyS
Experimental: IDH1 activities were measured spectrophotometrically by monitoring changes in NADPH absorbance at 340 nm.[10] […] The difference in absorbance, ΔA340, in the linear range of the reaction profile was converted to % residual activity using a DMSO control as the 100% residual activity reference. […] Experiments were performed in (at least) triplicate. The standard assay buffer for IDH1 consists of 100 mM tris–HCl, 10 mM MgCl2, 0.005% (v/v) Tween 20, pH 8.0, 0.2 mM DTT, and 0.1 mg/mL BSA. In general, compounds [25 μL, 0.4% (v/v) DMSO] were pre-incubated with IDH1 (25 μL) for 12 min, followed by addition of DL-isocitrate/2OG (25 μL) and NADP^+/NADPH (25 μL) to initiate the reaction. The substrate/cofactor concentrations were optimized by determining KM values for substrates/cofactors as described.[10]

[2] = target: T2, wt IDH1 (Homo sapiens, UniProt O75874); experiment: Differential scanning fluorimetry (DSF) thermal shift, wt IDH1; assay type: binding; conditions: largest change in Tm of IDH1 ([…]) with 3-100 μM inhibitor
T2 construct: made in house; host or cells: Escherichia coli BL21(DE3) pLyS
T2 sequence (O75874 whole entry): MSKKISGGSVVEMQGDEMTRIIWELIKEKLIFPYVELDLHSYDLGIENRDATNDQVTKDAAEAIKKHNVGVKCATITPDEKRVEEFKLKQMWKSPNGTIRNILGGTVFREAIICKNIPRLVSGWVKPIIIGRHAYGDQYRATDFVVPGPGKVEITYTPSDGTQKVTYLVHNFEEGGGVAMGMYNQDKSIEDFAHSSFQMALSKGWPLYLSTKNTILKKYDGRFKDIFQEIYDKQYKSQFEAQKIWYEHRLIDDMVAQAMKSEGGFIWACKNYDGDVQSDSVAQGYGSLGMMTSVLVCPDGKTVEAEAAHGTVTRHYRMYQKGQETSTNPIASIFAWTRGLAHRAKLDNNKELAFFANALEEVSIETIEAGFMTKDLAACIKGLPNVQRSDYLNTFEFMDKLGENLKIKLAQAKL
Experimental: (§1) Thermal shift experiments were carried out using Sypro Orange and a CFX96 Touch Real-Time PCR Detection System (Bio-Rad) machine.[42] […] The standard assay buffer contains 50 mM tris–HCl at pH 7.5. Various concentrations of compounds (1% DMSO final) were mixed with IDH1 for thermal stabilization studies. […] Bio-Rad CFX Manager was used to determine the melting temperature, Tm.

[3] = target: T1, IDH1 R132H; experiment: Differential scanning fluorimetry (DSF) thermal shift, IDH1 R132H; assay type: binding; conditions: largest change in Tm of IDH1 ([…]) with 3-100 μM inhibitor
Experimental: as §1

[4] = target: T2, wt IDH1; experiment: Circular dichroism (CD) melting temperature, wt IDH1; assay type: binding; conditions: inhibitor 42 μM, IDH 4.2 μM (0.2 mg/mL); read-out: Δ Tm/°C by CD wt IDH1
Experimental: (§2) CD spectra were acquired using a Chirascan CD spectrometer (Applied Photophysics) with a Peltier temperature-control cell holder. Experiments were carried out in a 0.1 cm path length quartz cuvette at 20 °C. […] Spectra were averaged (n = 3) and smoothed (window size = 7) using the Savitzky–Golay filter. The mean residue ellipticity (MRE) was calculated according to the formula [drawing 1] where θ is the degree of ellipticity, N is the number of amino acids, c is the concentration (mol/L), and l is the path length (cm).
(§3) Measurements were conducted in 2 °C increments. The melting temperature was calculated using a Boltzmann sigmoidal model in GraphPad Prism v5.04.

[5] = target: T1, IDH1 R132H; experiment: Circular dichroism (CD) melting temperature, IDH1 R132H; assay type: binding; conditions: inhibitor 42 μM, IDH 4.2 μM (0.2 mg/mL); read-out: Δ Tm/°C by CD IDH1 R132H
Experimental: as §2, §3

[6] = target: T2, wt IDH1; experiment: Isothermal titration calorimetry (ITC), wt IDH1; assay type: binding; conditions: 40 μM IDH1, 50 mM tris-HCl pH 7.5, 25 °C
Experimental: ITC was conducted using a Malvern MicroCal PEAQ-ITC Automated machine (Malvern Panalytical). In general, IDH1 was prepared in 50 mM tris–HCl, pH 7.5, and the compounds were dissolved in the same buffer. 400 μL of cell solution containing 40 μM IDH1 [4% (v/v) DMSO] and 200 μL of the titrant containing 200 or 400 μM compound [2% or 4% (v/v) DMSO] were transferred to an ITC plate (Malvern Panalytical WEL020854-010). […] The injection setup consisted of 19 injections, with 1 initial injection of 0.4 μL and 18 subsequent injections of 2.0 μL each with 150 s between the injections. Thermodynamic parameters were obtained using MicroCal PEAQ-ITC analysis software.

[7] = target: T1, IDH1 R132H; experiment: Non-denaturing MS binding, IDH1 R132H; conditions: Figure S7b
Experimental: Non-denaturing mass spectra were obtained using a quadrupole time-of-flight mass spectrometer (Synapt HD MS, Waters, Manchester, UK).[44],[45] […] Protein concentrations were measured using a Nanodrop spectrometer (Thermo Scientific NanoDrop One). Compounds were dissolved in MeOH to avoid DMSO interference with mass spectra. IDH1 (20 μL of 50 μM final) and the compound of interest (1–4% (v/v) MeOH) in 200 mM ammonium acetate at pH 7.5 were pipetted into wells of a sample plate of an automated chip-based nano-electrospray ion source (TriVersa Nanomate, Advion, Ithaka, NY, USA). Compounds were serially diluted in buffer and mixed with IDH1 diluted in buffer. The mixture was sprayed through a nozzle in a Nanomate chip at a spray voltage of 1.8–2.0 kV (spray backing gas pressure 0.8–1.0 psi, inlet pressure 3.8 mbar). […] Data collection and analyses used Waters MassLynx software. Mass spectra were calibrated externally using CsI solution. KD values were calculated using eq 2 as reported[46] at each compound concentration and are reported as an average across multiple concentrations. For inhibitors with a binding stoichiometry of two inhibitors/IDH dimer, the inhibitor-bound protein peak intensity used was a sum of first and second inhibitor-bound protein peak intensities. Data for the IDH1 dimer m/z = 20^+ charge state are shown. For clarity, only 2× NADPH bound protein peaks are annotated.

[8] = target: T1, IDH1 R132H; experiment: 1H NMR (700 MHz) reaction monitoring, IDH1 R132H-catalysed conversion of 2OG to 2HG; assay type: biochemical; conditions: 1 μM IDH1 R132H, 20 μM compound, over […]; in words
Experimental: Nuclear magnetic resonance (NMR) reaction monitoring was performed at 298 K using a Bruker AVIII 700 MHz NMR spectrometer with a 5 mm inverse triple-carbon-inverse (TCI) cryoprobe in 5 mm tubes (Norell). Data were recorded with a relaxation delay of 2 s and 32 scans, employing a pulse sequence with water suppression (^1H excitation sculpting suppression with perfect-echo using a 2 ms Sinc selective inversion pulse). There is a time delay of 184 s between each acquired spectrum over the time-course experiment. Conversion of 2OG to 2HG catalyzed by IDH1 R132H was monitored using 500 μL of 1 μM IDH, 20 μM compound [0.4% (v/v) DMSO, 10 min pre-incubation with IDH], 10 mM MgCl2, 1.5 mM NADPH, and 1.5 mM 2OG, in 50 mM tris-D11-HCl, pH 7.5 in 90% H2O/10% D2O (v/v). Data were processed with TopSpin 3.6.1 software. Signals corresponding to NADPH, NADP^+, 2OG, and 2HG at each time point over a total of 2 to 3 h were integrated, converted to concentrations, and plotted against time. The difference in concentrations in the linear range of the reaction profile was converted to % residual activity with the DMSO control defined as the 100% residual activity reference.

T1 sequence (O75874 whole entry R132H): as the sequence (O75874 whole entry) above, with R132H counted along it

With `Cc1ccccc1C(C(=O)NC1CCCCC1)N(C(=O)Cn1ccnc1C)c1cccc(F)c1` (stereo not drawn) [AGI-5198] the “Selectivity against IDH1 R132H over IDH1 wt” value ([1]; IC50 (IDH1 wt)/IC50 (IDH1 R132H)) was greater than 164, the IC50 ([1]; IDH1 R132H (30 nM), 2OG to 2HG, 100 mM tris-HCl, 10 mM MgCl2, pH 8.0) was 61 nM and the “Δ Tm/°C by DSF wt IDH1” value [2] was 6.9 °C. The “Δ Tm/°C by DSF IDH1 R132H” value [3] was 6.0 °C, the ΔTm at 42 µM [4] was 2.9 °C and the ΔTm at 42 µM [5] was 7.7 °C. For the same compound, the Kd [6] was greater than 400 µM, the “stoichiometry, inhibitors per IDH1 dimer, IDH1 R132H” value [7] was 1 and the “inhibition of IDH1 R132H catalysed conversion of 2OG to 2HG monitored by 1H NMR” value [8] was “weaker inhibition”.
